Patent US12220525B2, “Tiotropium formulation and inhaler” (KINDEVA DRUG DELIVERY L.P., priority 2018, dated 2025)

Assay: Delivered dose study (unit spray collection apparatus, USCA)
Format: physicochemical
Description: Metered dose inhalers (MDIs) were prepared using deep drawn aluminum canisters (3M Corporation, Cltheroe, UK), 50 microliter Bespak PBT (polybutylene terephthalate) valves (BK0514719, Bespak Europe Ltd, Bergen Way, King's Lynn, Norfolk, PE30 2JJ) fitted with EPDM (ethylene-propylene diene terpolymer elastomer) diaphragm seals, and an Mk6 P&B actuator. The internal surface of each canister was coated with FEP (fluorinated ethylene propylene copolymer). The bulk formulation for cold filling individual canisters can be prepared by first admixing citric acid and the ethanol, and then adding the tiotropium bromide to the citric acid and ethanol mixture. HFA-134a propellant was then added to a separate batching vessel, and the mixture of tiotropium bromide, citric acid, and ethanol was then added be to the HFA-134a. The formulation was mixed at −50° C. The metered dose inhalers made according to Table 1 were designed to deliver 5 micrograms of Tiotropium (free base) per actuation.
The start of unit life delivered dose was determined using standard unit spray collection apparatus (USCA) fitted with a filter. For each determination, an MDI was attached to the USCA using a coupler and actuated a single time. Immediately prior to attachment, the MDI was shaken. Prior to collection of the test sample, the MDI was primed by actuating four times. Prior to each priming shot the MDI was shaken.

C[N+]1(C)[C@@H]2C[C@@H](OC(=O)C(O)(c3cccs3)c3cccs3)C[C@H]1[C@@H]1O[C@@H]12 [tiotropium bromide]
Start of life dose content uniformity (MDI with Table 1 formulation (0.1204 mg/ml tiotropium bromide, 0.04 wt. % citric acid, 15 wt. % ethanol, HFA-134a; FEP can), primed by actuating four times, single actuation, FIG. 5): 4.3 mcg/actuation | uniformity of dose delivered on storage (MDI with Table 1 formulation, on storage, FIG. 7): remained constant on storage
